Data taken from ChEMBL document CHEMBL4138148, “Discovery of novel pyrrolo-pyridine/pyrimidine derivatives bearing pyridazinone moiety as c-Met kinase inhibitors” (Eur J Med Chem, 2017).
Activity calls are given as the source filed them. The rule behind the calls is not given here.

Key:
[1] = molecular target: Hepatocyte growth factor receptor (Homo sapiens, UniProt P08581); test: Inhibition of c-MET (unknown origin) using FAM-labeled peptide as substrate preincubated for 10 mins followed by substrate addition by mobility shift assay
A549 [2] = test: cells; conditions: Homo sapiens, A549, 72 h
Description: (§1) Cytotoxicity against human A549 cells assessed as reduction in cell viability after 72 hrs by MTT assay

HepG2 [3] = test: cells; conditions: Homo sapiens, HepG2, 72 h
Description: (§2) Cytotoxicity against human HepG2 cells assessed as reduction in cell viability after 72 hrs by MTT assay

MCF7 [4] = test: cells; conditions: Homo sapiens, MCF7, 72 h
Description: (§3) Cytotoxicity against human MCF7 cells assessed as reduction in cell viability after 72 hrs by MTT assay

PC-3 [5] = test: cells; conditions: Homo sapiens, PC-3, 72 h
Description: (§4) Cytotoxicity against human PC3 cells assessed as reduction in cell viability after 72 hrs by MTT assay

[6] = molecular target: T1, Receptor-type tyrosine-protein kinase FLT3 (Homo sapiens, UniProt P36888); test: Inhibition of FLT3 (unknown origin) using FAM-labeled peptide as substrate preincubated for 10 mins followed by substrate addition by mobility shift assay
T1 sequence (P36888 whole entry): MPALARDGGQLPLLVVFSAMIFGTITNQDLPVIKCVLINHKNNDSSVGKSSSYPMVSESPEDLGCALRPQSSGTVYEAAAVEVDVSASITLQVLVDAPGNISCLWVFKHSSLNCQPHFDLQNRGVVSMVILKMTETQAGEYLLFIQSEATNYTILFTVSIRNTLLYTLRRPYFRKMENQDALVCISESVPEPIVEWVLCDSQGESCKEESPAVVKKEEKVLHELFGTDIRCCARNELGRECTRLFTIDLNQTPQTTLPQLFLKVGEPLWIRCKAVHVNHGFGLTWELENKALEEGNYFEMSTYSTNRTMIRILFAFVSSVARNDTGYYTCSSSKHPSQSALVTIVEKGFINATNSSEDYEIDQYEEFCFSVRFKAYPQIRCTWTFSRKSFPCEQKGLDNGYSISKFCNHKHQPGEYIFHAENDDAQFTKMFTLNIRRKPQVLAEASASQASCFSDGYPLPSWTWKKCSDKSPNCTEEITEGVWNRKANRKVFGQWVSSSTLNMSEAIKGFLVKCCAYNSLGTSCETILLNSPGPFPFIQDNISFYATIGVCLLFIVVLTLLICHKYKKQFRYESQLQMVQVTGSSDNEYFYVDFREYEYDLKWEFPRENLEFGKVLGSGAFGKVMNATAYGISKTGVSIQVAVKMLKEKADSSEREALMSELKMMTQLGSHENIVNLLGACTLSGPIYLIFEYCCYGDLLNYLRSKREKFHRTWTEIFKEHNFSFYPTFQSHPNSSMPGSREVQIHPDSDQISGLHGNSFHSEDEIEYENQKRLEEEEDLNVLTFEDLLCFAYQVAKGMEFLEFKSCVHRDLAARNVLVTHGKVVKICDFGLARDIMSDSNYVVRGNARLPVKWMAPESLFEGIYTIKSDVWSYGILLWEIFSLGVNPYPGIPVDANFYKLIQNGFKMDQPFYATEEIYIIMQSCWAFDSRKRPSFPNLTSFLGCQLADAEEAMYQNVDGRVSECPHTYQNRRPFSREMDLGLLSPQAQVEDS

[7] = molecular target: Vascular endothelial growth factor receptor 2 (Homo sapiens, UniProt P35968); test: Inhibition of VEGFR2 (unknown origin) using FAM-labeled peptide as substrate preincubated for 10 mins followed by substrate addition by mobility shift assay
[8] = molecular target: Mast/stem cell growth factor receptor Kit (Homo sapiens, UniProt P10721); test: Inhibition of cKIT (unknown origin) using FAM-labeled peptide as substrate preincubated for 10 mins followed by substrate addition by mobility shift assay
[9] = molecular target: Epidermal growth factor receptor (Homo sapiens, UniProt P00533); test: Inhibition of EGFR (unknown origin) using FAM-labeled peptide as substrate preincubated for 10 mins followed by substrate addition by mobility shift assay
HepG2 [10] = test: Induction of apoptosis in human HepG2 cells assessed as formation of cell shrinkage at 1.3 uM by acridine orange dye based inverted fluorescence microscopy; assay type: functional
HepG2 [11] = test: Induction of apoptosis in human HepG2 cells assessed as formation of chromatin condensation at 1.3 uM by acridine orange dye based inverted fluorescence microscopy; assay type: functional, cell-based
HepG2 [12] = test: Induction of apoptosis in human HepG2 cells assessed as formation of DNA fragments at 1.3 uM by acridine orange dye based inverted fluorescence microscopy; assay type: functional, cell-based
HepG2 [13] = test: Induction of apoptosis in human HepG2 cells assessed as early apoptotic cells at 1.3 uM by Annexin V-FITC/propidium iodide staining based flow cytometry (reference value: 6.11%); assay type: functional
HepG2 [14] = test: Induction of apoptosis in human HepG2 cells assessed as late apoptotic cells at 1.3 uM by Annexin V-FITC/propidium iodide staining based flow cytometry (reference value: 6.07%); assay type: functional
HepG2 [15] = test: Induction of apoptosis in human HepG2 cells assessed as necrotic cells at 1.3 uM by Annexin V-FITC/propidium iodide staining based flow cytometry (reference value: 0.28%); assay type: functional
HepG2 [16] = test: Induction of apoptosis in human HepG2 cells assessed as viable cells at 1.3 uM by Annexin V-FITC/propidium iodide staining based flow cytometry (reference value: 87.54%); assay type: functional; conditions: read-out: Activity
PC-3 [17] = conditions: Homo sapiens
Description: as §4

A549 [18] = conditions: Homo sapiens
Description: as §1

MCF7 [19] = conditions: Homo sapiens
Description: as §3

HepG2 [20] = conditions: Homo sapiens
Description: as §2

HepG2 [21] = test: Induction of apoptosis in human HepG2 cells assessed as early apoptotic cells at 2.8 uM by Annexin V-FITC/propidium iodide staining based flow cytometry (reference value: 6.11%); assay type: functional
HepG2 [22] = test: Induction of apoptosis in human HepG2 cells assessed as late apoptotic cells at 2.8 uM by Annexin V-FITC/propidium iodide staining based flow cytometry (reference value: 6.07%); assay type: functional
HepG2 [23] = test: Induction of apoptosis in human HepG2 cells assessed as necrotic cells at 2.8 uM by Annexin V-FITC/propidium iodide staining based flow cytometry (reference value: 0.28%); assay type: functional
HepG2 [24] = test: Induction of apoptosis in human HepG2 cells assessed as viable cells at 2.8 uM by Annexin V-FITC/propidium iodide staining based flow cytometry (reference value: 87.54%); assay type: functional; conditions: read-out: Activity

Chain of Hepatocyte growth factor receptor (P08581 whole entry): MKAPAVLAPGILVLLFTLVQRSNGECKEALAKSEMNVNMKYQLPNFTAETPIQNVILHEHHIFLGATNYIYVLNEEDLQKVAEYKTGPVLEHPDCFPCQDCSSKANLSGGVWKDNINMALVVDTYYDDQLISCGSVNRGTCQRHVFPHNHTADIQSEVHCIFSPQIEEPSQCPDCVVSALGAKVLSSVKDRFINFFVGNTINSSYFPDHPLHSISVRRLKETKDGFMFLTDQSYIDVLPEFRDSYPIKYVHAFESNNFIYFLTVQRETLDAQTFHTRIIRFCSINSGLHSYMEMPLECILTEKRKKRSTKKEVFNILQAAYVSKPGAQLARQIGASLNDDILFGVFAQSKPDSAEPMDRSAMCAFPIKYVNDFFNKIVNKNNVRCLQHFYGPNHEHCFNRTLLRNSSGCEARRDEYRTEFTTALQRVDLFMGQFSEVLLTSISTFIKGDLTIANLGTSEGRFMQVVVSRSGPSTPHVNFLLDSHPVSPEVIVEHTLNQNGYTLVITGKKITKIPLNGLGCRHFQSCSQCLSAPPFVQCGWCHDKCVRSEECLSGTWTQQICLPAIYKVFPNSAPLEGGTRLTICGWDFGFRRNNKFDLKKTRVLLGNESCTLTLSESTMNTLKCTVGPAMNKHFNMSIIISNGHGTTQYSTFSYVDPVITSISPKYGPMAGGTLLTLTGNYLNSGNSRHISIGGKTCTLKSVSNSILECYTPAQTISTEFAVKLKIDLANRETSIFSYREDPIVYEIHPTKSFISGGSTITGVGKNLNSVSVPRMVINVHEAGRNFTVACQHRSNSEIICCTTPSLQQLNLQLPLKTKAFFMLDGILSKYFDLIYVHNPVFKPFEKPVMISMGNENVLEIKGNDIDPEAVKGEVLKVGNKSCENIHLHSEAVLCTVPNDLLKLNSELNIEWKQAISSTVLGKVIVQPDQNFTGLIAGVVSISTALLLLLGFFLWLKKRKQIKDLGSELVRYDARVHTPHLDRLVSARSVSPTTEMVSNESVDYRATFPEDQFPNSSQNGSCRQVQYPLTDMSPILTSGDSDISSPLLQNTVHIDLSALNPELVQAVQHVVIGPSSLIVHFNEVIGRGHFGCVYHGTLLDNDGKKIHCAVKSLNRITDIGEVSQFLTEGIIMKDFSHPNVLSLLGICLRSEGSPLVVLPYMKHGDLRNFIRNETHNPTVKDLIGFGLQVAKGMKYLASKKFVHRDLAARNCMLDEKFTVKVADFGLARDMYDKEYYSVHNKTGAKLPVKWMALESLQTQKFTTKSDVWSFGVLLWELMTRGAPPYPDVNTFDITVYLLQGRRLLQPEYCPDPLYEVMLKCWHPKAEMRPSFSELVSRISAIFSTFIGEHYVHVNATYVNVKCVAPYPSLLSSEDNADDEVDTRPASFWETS
Chain of Vascular endothelial growth factor receptor 2 (P35968 whole entry): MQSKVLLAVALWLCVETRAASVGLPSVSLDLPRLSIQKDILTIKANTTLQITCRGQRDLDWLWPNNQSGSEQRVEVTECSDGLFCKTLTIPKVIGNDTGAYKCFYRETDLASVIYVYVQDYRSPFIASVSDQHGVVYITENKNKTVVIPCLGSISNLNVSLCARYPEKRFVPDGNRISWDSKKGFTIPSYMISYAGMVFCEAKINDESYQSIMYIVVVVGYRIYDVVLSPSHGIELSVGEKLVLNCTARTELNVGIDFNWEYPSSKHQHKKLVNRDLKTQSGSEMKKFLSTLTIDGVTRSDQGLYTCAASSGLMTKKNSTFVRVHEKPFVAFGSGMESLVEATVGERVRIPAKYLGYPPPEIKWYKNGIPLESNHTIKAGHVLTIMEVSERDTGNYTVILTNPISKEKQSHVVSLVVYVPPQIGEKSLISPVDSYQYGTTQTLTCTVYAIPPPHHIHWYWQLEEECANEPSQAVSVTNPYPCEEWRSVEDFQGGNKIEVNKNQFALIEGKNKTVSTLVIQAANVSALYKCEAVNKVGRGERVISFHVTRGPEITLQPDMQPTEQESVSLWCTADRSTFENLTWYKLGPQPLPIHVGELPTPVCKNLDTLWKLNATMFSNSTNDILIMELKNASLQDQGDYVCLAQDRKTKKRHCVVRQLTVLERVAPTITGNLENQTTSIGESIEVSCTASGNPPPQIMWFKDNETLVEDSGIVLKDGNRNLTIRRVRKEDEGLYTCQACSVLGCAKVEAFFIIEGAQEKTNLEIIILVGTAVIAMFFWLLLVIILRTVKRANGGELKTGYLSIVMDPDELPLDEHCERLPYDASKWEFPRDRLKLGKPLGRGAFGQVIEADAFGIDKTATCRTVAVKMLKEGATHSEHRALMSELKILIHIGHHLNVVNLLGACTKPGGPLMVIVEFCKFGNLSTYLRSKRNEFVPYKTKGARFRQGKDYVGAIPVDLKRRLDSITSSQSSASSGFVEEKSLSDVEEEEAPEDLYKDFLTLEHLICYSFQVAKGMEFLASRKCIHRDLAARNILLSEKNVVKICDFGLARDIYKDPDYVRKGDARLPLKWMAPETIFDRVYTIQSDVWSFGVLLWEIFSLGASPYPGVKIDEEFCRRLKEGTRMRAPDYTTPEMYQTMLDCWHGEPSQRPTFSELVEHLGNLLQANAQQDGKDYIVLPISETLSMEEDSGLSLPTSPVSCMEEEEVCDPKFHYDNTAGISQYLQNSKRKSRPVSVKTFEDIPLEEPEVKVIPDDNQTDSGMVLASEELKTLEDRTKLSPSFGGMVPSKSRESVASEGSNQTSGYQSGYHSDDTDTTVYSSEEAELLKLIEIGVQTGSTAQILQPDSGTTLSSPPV
Chain of Epidermal growth factor receptor (P00533 whole entry): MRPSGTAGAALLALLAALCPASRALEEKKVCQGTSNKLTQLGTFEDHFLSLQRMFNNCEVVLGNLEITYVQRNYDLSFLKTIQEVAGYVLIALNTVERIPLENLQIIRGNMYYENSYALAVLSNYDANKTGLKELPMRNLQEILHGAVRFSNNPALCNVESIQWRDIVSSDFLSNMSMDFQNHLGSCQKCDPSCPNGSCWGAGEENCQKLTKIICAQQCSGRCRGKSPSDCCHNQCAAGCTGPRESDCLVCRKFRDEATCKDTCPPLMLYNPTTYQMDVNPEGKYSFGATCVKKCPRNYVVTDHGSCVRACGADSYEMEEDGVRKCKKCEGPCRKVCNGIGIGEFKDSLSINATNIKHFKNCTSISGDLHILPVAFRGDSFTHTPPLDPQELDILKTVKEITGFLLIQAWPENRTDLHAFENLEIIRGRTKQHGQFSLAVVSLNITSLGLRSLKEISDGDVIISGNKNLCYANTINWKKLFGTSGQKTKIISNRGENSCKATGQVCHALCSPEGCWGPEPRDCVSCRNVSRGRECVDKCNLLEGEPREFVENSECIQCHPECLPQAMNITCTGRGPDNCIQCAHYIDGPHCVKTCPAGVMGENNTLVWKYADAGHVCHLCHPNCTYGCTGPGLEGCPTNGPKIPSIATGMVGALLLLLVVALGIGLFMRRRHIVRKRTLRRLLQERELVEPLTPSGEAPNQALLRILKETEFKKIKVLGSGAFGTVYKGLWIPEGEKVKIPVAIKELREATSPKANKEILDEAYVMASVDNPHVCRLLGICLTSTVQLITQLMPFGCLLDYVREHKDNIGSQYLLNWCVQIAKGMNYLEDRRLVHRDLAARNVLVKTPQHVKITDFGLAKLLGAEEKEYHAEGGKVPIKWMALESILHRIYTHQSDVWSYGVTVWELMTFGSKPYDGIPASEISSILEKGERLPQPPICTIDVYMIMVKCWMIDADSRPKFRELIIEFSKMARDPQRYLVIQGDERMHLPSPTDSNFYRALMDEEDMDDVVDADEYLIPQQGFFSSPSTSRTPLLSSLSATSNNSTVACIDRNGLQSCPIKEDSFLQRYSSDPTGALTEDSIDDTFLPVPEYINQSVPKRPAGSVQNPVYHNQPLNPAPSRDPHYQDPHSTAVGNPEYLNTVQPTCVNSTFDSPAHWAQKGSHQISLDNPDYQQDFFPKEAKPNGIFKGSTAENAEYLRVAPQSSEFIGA
Chain of Mast/stem cell growth factor receptor Kit (P10721 whole entry): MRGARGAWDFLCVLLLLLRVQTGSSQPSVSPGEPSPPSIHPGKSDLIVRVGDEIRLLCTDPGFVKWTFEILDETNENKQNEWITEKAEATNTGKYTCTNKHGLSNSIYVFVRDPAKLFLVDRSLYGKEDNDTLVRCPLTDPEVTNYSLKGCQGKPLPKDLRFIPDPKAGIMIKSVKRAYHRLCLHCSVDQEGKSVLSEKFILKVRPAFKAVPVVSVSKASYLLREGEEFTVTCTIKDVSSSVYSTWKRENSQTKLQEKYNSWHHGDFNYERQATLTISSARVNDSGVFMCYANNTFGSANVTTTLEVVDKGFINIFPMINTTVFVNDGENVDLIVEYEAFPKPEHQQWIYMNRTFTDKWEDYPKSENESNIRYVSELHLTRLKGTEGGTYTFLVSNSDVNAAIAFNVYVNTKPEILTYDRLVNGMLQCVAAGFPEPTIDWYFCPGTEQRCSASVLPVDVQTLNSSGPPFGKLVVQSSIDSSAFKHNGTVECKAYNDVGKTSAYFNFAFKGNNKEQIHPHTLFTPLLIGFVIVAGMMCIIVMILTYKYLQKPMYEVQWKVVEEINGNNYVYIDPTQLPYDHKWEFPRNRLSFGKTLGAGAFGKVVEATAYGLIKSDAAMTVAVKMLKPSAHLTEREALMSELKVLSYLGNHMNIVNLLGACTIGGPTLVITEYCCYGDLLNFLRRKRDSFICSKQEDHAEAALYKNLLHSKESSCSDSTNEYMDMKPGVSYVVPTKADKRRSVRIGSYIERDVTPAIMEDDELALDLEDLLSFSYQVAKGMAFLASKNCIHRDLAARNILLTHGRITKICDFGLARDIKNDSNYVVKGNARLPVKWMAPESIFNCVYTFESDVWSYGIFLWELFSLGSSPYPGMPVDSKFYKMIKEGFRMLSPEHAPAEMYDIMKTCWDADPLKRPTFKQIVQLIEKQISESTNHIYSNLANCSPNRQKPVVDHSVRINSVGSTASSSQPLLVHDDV

| Compound | IC50 (A549 [2]) [µM] | IC50 (HepG2 [3]) [µM] | IC50 (MCF7 [4]) [µM] | IC50 (PC-3 [5]) [µM] | further results |
| --- | --- | --- | --- | --- | --- |
| O=C(Nc1ccc(Oc2ccnc3[nH]ccc23)cc1)c1nn(-c2ccc(Cl)c(F)c2)ccc1=O | 2.58 | 5.24 | 3.11 | 7.78 | IC50 [1]: 0.17 µM |
| O=C(Nc1ccc(Oc2ccnc3[nH]ccc23)cc1)c1nn(-c2ccc(Cl)c(C(F)(F)F)c2)ccc1=O | 2.19 | 1.32 | 6.27 | 4.63 | IC50 [1]: 0.073 µM; IC50 [6]: 0.77 µM; IC50 [7]: 2.4 µM; IC50 [8]: 2.2 µM; IC50 [9]: > 10 µM; Activity (HepG2 [10]): Active; Activity (HepG2 [11]): Active; Activity (HepG2 [12]): Active; Activity (HepG2 [13]): 23.01%; Activity (HepG2 [14]): 11.89%; Activity (HepG2 [15]): 2.31%; viability at 1.3 µM (HepG2 [16]): 62.8%; Activity (PC-3 [17]): Dose-dependent effect; Activity (A549 [18]): Dose-dependent effect; Activity (MCF7 [19]): Dose-dependent effect; Activity (HepG2 [20]): Dose-dependent effect |
| COc1cc2c(Oc3ccc(NC(=O)C4(C(=O)Nc5ccc(F)cc5)CC4)cc3F)ccnc2cc1OCCCN1CCOCC1 [FORETINIB] |  |  |  |  | Activity (HepG2 [21]): 16.09%; Activity (HepG2 [22]): 10.3%; Activity (HepG2 [23]): 1.25%; viability at 2.8 µM (HepG2 [24]): 72.4% |
| O=C(Nc1ccc(Oc2ccnc3[nH]ccc23)cc1)c1nn(-c2ccc(Br)cc2F)ccc1=O | 26.1 | 46.4 | 17.9 | 12.8 |  |
| O=C(Nc1ccc(Oc2ccnc3[nH]ccc23)cc1)c1nn(-c2ccc(Cl)cc2)ccc1=O | 25.1 | 19.5 | 10.6 | 32.4 |  |
| Cc1cc(=O)n(-c2ccc(Br)cc2F)nc1C(=O)Nc1ccc(Oc2ncnc3[nH]ccc23)cc1 | 3.77 | 3.66 | 3.21 | 2.73 | IC50 [1]: 20.7 µM |
| COc1ccc(-n2ccc(=O)c(C(=O)Nc3ccc(Oc4ccnc5c4ccn5C)cc3)n2)cc1 | > 60 | > 60 | > 60 | > 60 |  |
| O=C(Nc1ccc(Oc2ccnc3[nH]ccc23)c(F)c1)c1nn(-c2ccccc2)ccc1=O | 56.8 | 24.9 | 34.9 | 38.6 |  |
| Cn1ccc2c(Oc3ccc(NC(=O)c4nn(-c5ccc(Cl)c(F)c5)ccc4=O)cc3F)ccnc21 | > 60 | 22.1 | 16.6 | 17.9 |  |
| Cc1cc(=O)n(-c2ccccc2C(F)(F)F)nc1C(=O)Nc1ccc(Oc2ncnc3c2ccn3C)c(F)c1 | 35.4 | > 60 | > 60 | 25.9 |  |
| Cc1ccc(-n2nc(C(=O)Nc3ccc(Oc4ncnc5[nH]ccc45)c(F)c3)c(C)cc2=O)cc1 | 18.5 | 18.8 | 18.9 | 20.4 |  |
| Cc1cc(=O)n(-c2ccc(F)cc2)nc1C(=O)Nc1ccc(Oc2ncnc3[nH]ccc23)c(F)c1 | 42.4 | 12.8 | 24.5 | 17.3 |  |
| O=C(Nc1ccc(Oc2ccnc3[nH]ccc23)cc1)c1nn(-c2ccccc2)ccc1=O | 10.5 | 17.8 | 15.6 | 15 |  |
| Cn1ccc2c(Oc3ccc(NC(=O)c4nn(-c5ccc(Br)cc5F)ccc4=O)cc3F)ccnc21 | 26.8 | 23.9 | 14.1 | 16.3 |  |
| Cc1ccc(-n2nc(C(=O)Nc3ccc(Oc4ncnc5[nH]ccc45)cc3)c(C)cc2=O)cc1 | 6.4 | 7.46 | 3.62 | 9.61 | IC50 [1]: 27 µM |
